Literature values as cited in patent publication US10214591B1, “Monoclonal antibody to human line-1 ORF2 protein and method for early detection of transforming cells in pre-neoplastic tissues of a human subject” (Alienor Farma, priority 2015, dated 2019).

How the values were obtained:
human tumorigenic cells = conditions: xenografted mice

SMILES	effect on proliferation and differentiation of cancer cells (tumorigenic cell lines)	effect on tumor progression (human tumorigenic cells)
O=C1Nc2ccc(Cl)cc2[C@@](C#CC2CC2)(C(F)(F)F)O1 [efavirenz, (S)-6-Chloro-4-(cyclopropylethynyl)-1,4-dihydro-4-(trifluoromethyl)-2H-3,1 benzoxazin-2-one]	reduced proliferation and enhanced differentiation	arrest, or a significant reduction, of tumor progression
Cc1ccnc2c1NC(=O)c1cccnc1N2C1CC1 [nevirapine]	reduced proliferation and enhanced differentiation	
